Paper PMC11277489, “Novel Piperazine Derivatives of Vindoline as Anticancer Agents” (International Journal of Molecular Sciences, 2024)

What follows are molecules tested on HOP-62 (assay: NCI60 five-dose screen, Non-small Cell Lung Cancer). Settings: Homo sapiens; HOP-62, Non-small Cell Lung Cancer; five-dose screen; read-out: GI50.
Format: cell-based

| SMILES | GI50 |
| --- | --- |
| CCC12C=CCN3CCC4(c5cc(NC(=O)CN6CCN(c7ccc(C(F)(F)F)cc7)CC6)c(OC)cc5N(C)C4C(O)(C(=O)OC)C1OC(C)=O)C32 (stereo not drawn) [Compound 17] | 3.72 µM |

Each molecule was assayed on HOP-92 (assay: NCI60 five-dose screen, Non-small Cell Lung Cancer). Settings: Homo sapiens; HOP-92, Non-small Cell Lung Cancer; five-dose screen; read-out: GI50.
Format: cell-based

| SMILES | GI50 |
| --- | --- |
| CCC12C=CCN3CCC4(c5cc(NC(=O)CN6CCN(c7ccc(C(F)(F)F)cc7)CC6)c(OC)cc5N(C)C4C(O)(C(=O)OC)C1OC(C)=O)C32 (stereo not drawn) [Compound 17] | 2.57 µM |

Each molecule was assayed on NCI-H522 (assay: NCI60 five-dose screen, Non-small Cell Lung Cancer). Settings: Homo sapiens; NCI-H522, Non-small Cell Lung Cancer; five-dose screen; read-out: GI50.
Format: cell-based

| SMILES | GI50 |
| --- | --- |
| CCC12C=CCN3CCC4(c5cc(NC(=O)CN6CCN(c7ccc(C(F)(F)F)cc7)CC6)c(OC)cc5N(C)C4C(O)(C(=O)OC)C1OC(C)=O)C32 (stereo not drawn) [Compound 17] | 10.5 µM |

The molecules below were run on UACC-257 (assay: NCI60 five-dose screen, Melanoma). Settings: Homo sapiens; UACC-257, Melanoma; five-dose screen; read-out: GI50.
Format: cell-based

| SMILES | GI50 |
| --- | --- |
| CCC12C=CCN3CCC4(c5cc(NC(=O)CN6CCN(c7ccc(C(F)(F)F)cc7)CC6)c(OC)cc5N(C)C4C(O)(C(=O)OC)C1OC(C)=O)C32 (stereo not drawn) [Compound 17] | 5.5 µM |

The molecules below were run on MOLT-4 (assay: NCI60 five-dose screen, Leukemia). Settings: Homo sapiens; MOLT-4, Leukemia; five-dose screen; read-out: GI50.
Format: cell-based

| SMILES | GI50 |
| --- | --- |
| CCC12C=CCN3CCC4(c5cc(NC(=O)CN6CCN(c7ccc(C(F)(F)F)cc7)CC6)c(OC)cc5N(C)C4C(O)(C(=O)OC)C1OC(C)=O)C32 (stereo not drawn) [Compound 17] | 2.09 µM |

What follows are molecules tested on CAKI-1 (assay: NCI60 five-dose screen, Renal Cancer). Settings: Homo sapiens; CAKI-1, Renal Cancer; five-dose screen; read-out: GI50.
Format: cell-based

| SMILES | GI50 |
| --- | --- |
| CCC12C=CCN3CCC4(c5cc(NC(=O)CN6CCN(c7ccc(C(F)(F)F)cc7)CC6)c(OC)cc5N(C)C4C(O)(C(=O)OC)C1OC(C)=O)C32 (stereo not drawn) [Compound 17] | 2.63 µM |

These molecules were tested on MCF7 (assay: NCI60 five-dose screen, Breast Cancer). Settings: Homo sapiens; MCF7, Breast Cancer; five-dose screen; read-out: GI50.
Format: cell-based

| SMILES | GI50 |
| --- | --- |
| CCC12C=CCN3CCC4(c5cc(NC(=O)CN6CCN(c7ccc(C(F)(F)F)cc7)CC6)c(OC)cc5N(C)C4C(O)(C(=O)OC)C1OC(C)=O)C32 (stereo not drawn) [Compound 17] | 3.72 µM |

The molecules below were run on HT29 (assay: NCI60 five-dose screen, Colon Cancer). Settings: Homo sapiens, HT-29; HT29, Colon Cancer; five-dose screen; read-out: GI50.
Format: cell-based

| SMILES | GI50 |
| --- | --- |
| CCC12C=CCN3CCC4(c5cc(NC(=O)CN6CCN(c7ccc(C(F)(F)F)cc7)CC6)c(OC)cc5N(C)C4C(O)(C(=O)OC)C1OC(C)=O)C32 (stereo not drawn) [Compound 17] | 2.09 µM |

The molecules below were run on RXF 393 (assay: NCI60 five-dose screen, Renal Cancer). Settings: Homo sapiens, RXF 393, Renal Cancer.
Format: cell-based

| SMILES | GI50 |
| --- | --- |
| CCC12C=CCN3CCC4(c5cc(NC(=O)CN6CCN(c7ccc(C(F)(F)F)cc7)CC6)c(OC)cc5N(C)C4C(O)(C(=O)OC)C1OC(C)=O)C32 (stereo not drawn) [Compound 17] | 5.37 µM |

Each molecule was assayed on SNB-75 (assay: NCI60 five-dose screen, CNS Cancer). Settings: Homo sapiens; SNB-75, CNS Cancer; five-dose screen; read-out: GI50.
Format: cell-based

| SMILES | GI50 |
| --- | --- |
| CCC12C=CCN3CCC4(c5cc(NC(=O)CN6CCN(c7ccc(C(F)(F)F)cc7)CC6)c(OC)cc5N(C)C4C(O)(C(=O)OC)C1OC(C)=O)C32 (stereo not drawn) [Compound 17] | 1.45 µM |

What follows are molecules tested on KM12 (assay: NCI60 five-dose screen, Colon Cancer). Settings: Homo sapiens; KM12, Colon Cancer; five-dose screen; read-out: GI50.
Format: cell-based

| SMILES | GI50 |
| --- | --- |
| CCC12C=CCN3CCC4(c5cc(NC(=O)CN6CCN(c7ccc(C(F)(F)F)cc7)CC6)c(OC)cc5N(C)C4C(O)(C(=O)OC)C1OC(C)=O)C32 (stereo not drawn) [Compound 17] | 3.72 µM |

Each molecule was assayed on SK-MEL-28 (assay: NCI60 five-dose screen, Melanoma). Settings: Homo sapiens; SK-MEL-28, Melanoma; five-dose screen; read-out: GI50.
Format: cell-based

| SMILES | GI50 |
| --- | --- |
| CCC12C=CCN3CCC4(c5cc(NC(=O)CN6CCN(c7ccc(C(F)(F)F)cc7)CC6)c(OC)cc5N(C)C4C(O)(C(=O)OC)C1OC(C)=O)C32 (stereo not drawn) [Compound 17] | 5.89 µM |

The molecules below were run on NCI-H322M (assay: NCI60 five-dose screen, Non-small Cell Lung Cancer). Settings: Homo sapiens, Non-small Cell Lung Cancer, five-dose screen, read-out: GI50.
Format: cell-based

| SMILES | GI50 |
| --- | --- |
| CCC12C=CCN3CCC4(c5cc(NC(=O)CN6CCN(c7ccc(C(F)(F)F)cc7)CC6)c(OC)cc5N(C)C4C(O)(C(=O)OC)C1OC(C)=O)C32 (stereo not drawn) [Compound 17] | 15.1 µM |

These molecules were tested on SK-MEL-2 (assay: NCI60 five-dose screen, Melanoma). Settings: Homo sapiens; SK-MEL-2, Melanoma; five-dose screen; read-out: GI50.
Format: cell-based

| SMILES | GI50 |
| --- | --- |
| CCC12C=CCN3CCC4(c5cc(NC(=O)CN6CCN(c7ccc(C(F)(F)F)cc7)CC6)c(OC)cc5N(C)C4C(O)(C(=O)OC)C1OC(C)=O)C32 (stereo not drawn) [Compound 17] | 4.37 µM |

What follows are molecules tested on EKVX (assay: NCI60 five-dose screen, Non-small Cell Lung Cancer). Settings: Homo sapiens, Non-small Cell Lung Cancer, five-dose screen, read-out: GI50.
Format: cell-based

| SMILES | GI50 |
| --- | --- |
| CCC12C=CCN3CCC4(c5cc(NC(=O)CN6CCN(c7ccc(C(F)(F)F)cc7)CC6)c(OC)cc5N(C)C4C(O)(C(=O)OC)C1OC(C)=O)C32 (stereo not drawn) [Compound 17] | 6.03 µM |

What follows are molecules tested on OVCAR-8 (assay: NCI60 five-dose screen, Ovarian Cancer). Settings: Homo sapiens; OVCAR-8, Ovarian Cancer; five-dose screen; read-out: GI50.
Format: cell-based

| SMILES | GI50 |
| --- | --- |
| CCC12C=CCN3CCC4(c5cc(NC(=O)CN6CCN(c7ccc(C(F)(F)F)cc7)CC6)c(OC)cc5N(C)C4C(O)(C(=O)OC)C1OC(C)=O)C32 (stereo not drawn) [Compound 17] | 8.51 µM |

What follows are molecules tested on RPMI-8226 (assay: NCI60 five-dose screen, Leukemia). Settings: Homo sapiens; RPMI-8226, Leukemia; five-dose screen; read-out: GI50.
Format: cell-based

| SMILES | GI50 |
| --- | --- |
| CCC12C=CCN3CCC4(c5cc(NC(=O)CN6CCN(c7ccc(C(F)(F)F)cc7)CC6)c(OC)cc5N(C)C4C(O)(C(=O)OC)C1OC(C)=O)C32 (stereo not drawn) [Compound 17] | 3.09 µM |

Each molecule was assayed on CCRF-CEM (assay: NCI60 five-dose screen, Leukemia). Settings: Homo sapiens, Leukemia, five-dose screen, read-out: GI50.
Format: cell-based

| SMILES | GI50 |
| --- | --- |
| CCC12C=CCN3CCC4(c5cc(NC(=O)CN6CCN(c7ccc(C(F)(F)F)cc7)CC6)c(OC)cc5N(C)C4C(O)(C(=O)OC)C1OC(C)=O)C32 (stereo not drawn) [Compound 17] | 3.24 µM |

These molecules were tested on SF-539 (assay: NCI60 five-dose screen, CNS Cancer). Settings: Homo sapiens; SF-539, CNS Cancer; five-dose screen; read-out: GI50.
Format: cell-based

| SMILES | GI50 |
| --- | --- |
| CCC12C=CCN3CCC4(c5cc(NC(=O)CN6CCN(c7ccc(C(F)(F)F)cc7)CC6)c(OC)cc5N(C)C4C(O)(C(=O)OC)C1OC(C)=O)C32 (stereo not drawn) [Compound 17] | 4.68 µM |

What follows are molecules tested on SNB-19 (assay: NCI60 five-dose screen, CNS Cancer). Settings: Homo sapiens; SNB-19, CNS Cancer; five-dose screen; read-out: GI50.
Format: cell-based

| SMILES | GI50 |
| --- | --- |
| CCC12C=CCN3CCC4(c5cc(NC(=O)CN6CCN(c7ccc(C(F)(F)F)cc7)CC6)c(OC)cc5N(C)C4C(O)(C(=O)OC)C1OC(C)=O)C32 (stereo not drawn) [Compound 17] | 5.37 µM |

What follows are molecules tested on NCI-H226 (assay: NCI60 five-dose screen, Non-small Cell Lung Cancer). Settings: Homo sapiens; NCI-H226, Non-small Cell Lung Cancer; five-dose screen; read-out: GI50.
Format: cell-based

| SMILES | GI50 |
| --- | --- |
| CCC12C=CCN3CCC4(c5cc(NC(=O)CN6CCN(c7ccc(C(F)(F)F)cc7)CC6)c(OC)cc5N(C)C4C(O)(C(=O)OC)C1OC(C)=O)C32 (stereo not drawn) [Compound 17] | 6.46 µM |
